“Also recorded” adds a separate entry of the source.
What was measured:
δ and εPKC isozymes = assay: PKC isozyme translocation and degradation in cardiac myocytes; assay type: cell-based, rat
Text: This peptide-induced translocation was followed by degradation of δ and εPKC isozymes.

[1] = test system: PKC-mediated germinal vesicle breakdown (GVBD) in Xenopus oocytes; assay: PKC-mediated Xenopus oocyte maturation (germinal vesicle breakdown, GVBD) after peptide microinjection; assay type: cell-based
Procedure: Exposure to insulin induces maturation in Xenopus oocytes via a PKC-dependent pathway (Smith, et al., 1992). The maturation response may be quantified by monitoring the appearance of a white spot in the animal hemisphere of the oocyte, indicating germinal vesicle breakdown (GVBD) and maturation. To assess the effects of RACK1 WD-40-derived peptides on insulin-induced PKC-mediated maturation, 50 nl of a 20 mM NaCl solution containing the indicated peptides [peptide I (SEQ ID NO:1; .circle-solid.), peptide rVI (SEQ ID NO:7; .box-solid.), or injection solution (.quadrature.)] […] One hour following the peptide injections, the oocytes were exposed to a solution containing insulin (8.25 μg/ml) for 2 minutes (t=0). 10-15 oocytes were used for each sample.
The data, representative of three independent experiments, are expressed as the percent of oocytes with GVBD following insulin exposure and are plotted as a function of time in FIG. 5.

PKC [2] = assay: PKC autophosphorylation; assay type: biochemical, rat; settings: 10 μM peptide; no PS, DG, calcium
Procedure: Rat brain PKC (~10 nM) was incubated with mild agitation in a final volume of 250 μl of overlay buffer, as in Example 1 either with anti-βPKC pseudosubstrate antibodies (1:10 dilution, Life Technologies, Gaithersburg, Md.) or with the indicated peptide (10 μM). Where indicated, PS (50 μg/ml), DG (0.8 μg/ml) and CaCl2 (1 mM) were also added. The amount of autophosphorylation was determined after 2 hours for the reaction with the anti-pseudosubstrate antibodies, or after 15 minutes for the other samples. 50 μl of a buffer comprised of 20 mM Tris-HCl (pH 7.5), 20 mM MgCl2, 20 μM ATP and 5 μci/ml [γ-^32 P]ATP. The mixture was incubated for 15 minutes at room temperature and the reaction was stopped by adding 60 μl sample buffer (see Example 9). The samples were then boiled for 10 minutes, loaded onto a 10% SDS-PAGE mini gel and electrophoresed. The gel was fixed with 50% methanol and 10% acetic acid for 1 hour, and the autophosphorylation of PKC was determined by autoradiography.

βPKC [3] = molecular target: T1, βPKC (Rattus norvegicus, UniProt P68403); assay: Sensitivity of βPKC to Arg-C endopeptidase (nicking); assay type: biochemical; design: All the solutions contained 5 nM rat brain PKC in peptide overlay buffer; from tissue; host or cells: rat brain; settings: 2.5 μg/ml PS and 50 μM CaCl2; peptide 10 μM; Arg-C 5 units/ml
Text: Upon activation of PKC, a pseudosubstrate autoinhibitory sequence at the N-terminus of the molecule dissociates from the catalytic site and becomes sensitive to endopeptidase Arg-C (Orr, et al.). In the absence of PKC activators, exposure of the 80 kDa βPKC to endopeptidase Arg-C has no effect on the enzyme (see FIG. 7, lane 1). In the presence of the PKC activators PS, DG and calcium, however, exposure of βPKC to Arg-C results in a "nicking" of the PKC (i.e. limited proteolysis generating a 78 kDa fragment and several small fragments (see FIG. 7, lane 2)). Continued exposure to Arg-C results in the disappearance of βPKC (Orr, et al.). The present experiment tests whether peptides derived from the WD-40 region of RACK1 alter the sensitivity of βPKC to endopeptidase Arg-C.
The methods used to assay Arg-C sensitivity are a modification of methods described by Orr, et al. Rat brain PKC (~5 nM) was incubated at room temperature in 500 μl of 20 mM Tris-HCl buffer (pH 7.5) alone or with Arg-C (5 units/ml) in the presence or absence of the indicated peptides (final concentration 10 μM or as indicated), PS, DG, and calcium (as indicated). 50 μl aliquots were removed into 20 μl of sample buffer during the reaction as indicated (samples in all the lanes were incubated for 30 minutes, except lanes 5, and 6, which were incubated for 5 and 15 minutes, respectively). The samples were boiled for 10 minutes at 80° C. and loaded onto 8% SDS-PAGE. βPKC was detected by Western blot analysis using anti-βPKC antibodies as described in Examples 6 and 8.
PKC was incubated for the indicated time alone (lane 1) or in the presence of Arg-C (lanes 2-9), with DG (0.8 μg/ml), PS (50 μg/ml) and CaCl2 (1 mM; lane 2), with PS (50 μg/ml) and CaCl2 (1 mM; lane 3), with PS (2.5 μg/ml) and CaCl2 (50 μM; lane 4); with PS (2.5 μg/ml), CaCl2 (50 μM) and with either peptide rVI (SEQ ID NO:7; 10 μM; lanes 5-7), control peptide (SEQ ID NO: 9; lane 8) or with peptide I (SEQ ID) NO:1; lane 9).

βPKC [4] = molecular target: T1, βPKC; assay: Overlay assay: binding of PKC to immobilized recombinant RACK1; design: from tissue; host or cells: PKC from rat brain; RACK1 made in-house in TB1 E. coli (pMAL-c2)
Procedure: (§1) Purified recombinant RACK1 protein (100-250 μg per lane, produced as detailed in Example 2) was subjected to SDS/PAGE and blotted onto nitrocellulose membranes (Ausubel). The nitrocellulose membranes were cut into strips, which were incubated for 0.5 hr in overlay buffer (Example 1) in the presence or absence of a mixture of PKC isozymes (α, β, γ, ε and .zeta., ~10 nM each final concentration) and PKC activators (60 μg/ml phosphatidylserine (PS), 2 μg/ml diacylglycerol (DG), and 1 mM CaCl2). Unbound material was removed by five washes, 5-min each, in overlay wash buffer. Where indicated, PKC activators were present during the incubation of PKC with the nitrocellulose strips. The conditions for each sample and corresponding results are presented in part D below.
PKC bound to RACK1 immobilized on nitrocellulose strips was detected as follows. […]
The concentration dependence of PKC binding to RACK1 was characterized with βPKC, since this isozyme is a major component of the PKC mixture used for the overlay assay. The mean half maximal binding was ~0.375 nM, and maximal binding was ~4 nM (n=3; values reflect binding of βPKC isozyme in the presence of other PKC isozymes and was determined by scanning autoradiograms in the linear range of detection, as described in Mochly-Rosen, et al., (1991).

PKC binding to RACK1 = assay: Overlay / overlay-extraction assay: inhibition of PKC binding to recombinant RACK1 by peptides; design: species or system rat; settings: for inhibition of the binding of PKC to RACK1, peptides rI-rVII: overlay assay, concentration not given
Procedure: as §1
The variation in the overlay protocol consisted of incubating the putative binding peptides with a mixture of PKC isozymes for 15 minutes at room temperature before the mixture was used to contact the nitrocellulose strips containing immobilized RACK1.
Nitrocellulose strips containing immobilized RACK1, that had been contacted with a solution containing a mixture of PKC isozymes, were washed and the area corresponding to the 36 kDa (RACK1-containing) band was cut out. The pieces (containing PKC/RACK1 complexes) were incubated with sample buffer for 10 minutes at 80° C. The sample buffer and the nitrocellulose pieces were then placed in wells in the PAGE gel and subjected to SDS-PAGE to elute the bound proteins. The gel was blotted onto nitrocellulose and a Western blot analysis was carried out using the mixture of antibodies (specific for PKC α, β, γ, δ, ε and .zeta. isozymes) described in Example 1 part B. Bound antibodies were detected by ^125 I-protein A.
Peptides derived from or homologous to WD-40 repeats of RACK1 were tested for their ability to inhibit PKC binding to recombinant RACK1. Binding of PKC to RACK1 was carried out using a variation of the overlay procedure described in Example 3 part B. In the experimental samples, peptides were incubated with a solution containing a mixture of rat brain PKC isozymes (~10 nM each) for 15 minutes at room temperature.
Following completion of the modified overlay protocol, the samples were subjected to the overlay-extraction protocol detailed in part B, above.

PKC [5] = assay: Histone type IIIs phosphorylation by PKC; assay type: biochemical; settings: peptide rVI 10 μM; PKC ~10 nM
Procedure: Histone type IIIs (Sigma Chemical Company, St. Louis, Mo.) was phosphorylated by PKC (~10 nM) in the absence (lane 1) and presence of peptide rVI (10 μM) (lanes 2 and 3) and in the presence and absence of DG (0.8 μg/ml), PS (50 μg/ml) and CaCl2 (1 mM) (lane 3). The results are expressed as percentage of control that is the amount of Histone phosphorylation by PKC in the presence of DG (0.8 μg/ml), PS (50 μg/ml) and CaCl2 (1 mM). The results are the average±SEM of two independent experiments. PKC was first incubated with the peptide rVI (10 μM) for 15 minutes in overlay buffer as described above. Histone type IIIs (40 μg/ml) was added in Tris-HCl (20 mM), MgCl2 (20 mM), ATP (20 μM) and [γ-^32 P]ATP (5 μci/ml) with or without PS (50 μg/ml), DG (0.8 μg/ml) and CaCl2 (1 mM). Histone phosphorylation was determined by autoradiography as above.

[6] = 50 μM peptide microinjected, insulin 8.25 μg/ml
[7] = peptide introduced into cardiac myocytes

## NC[C@H](O)c1ccc(O)c(O)c1 [norepinephrine, reference compound]
δ and εPKC isozymes; NE, 2 μM
  translocation of δ and εPKC isozymes from the cytosolic to the particulate fraction: causes translocation of δ and εPKC isozymes from the cytosolic to the particulate fraction

## control peptide: control peptide (SEQ ID NO:9) used as negative control (LKGKIL) [reference compound]
[1]; [6]
  delay to onset of maturation after exposure to insulin: 4 to 5 h
  time at which plateau of GVBD is reached: 10 to 12 h
[1]; 50 nl of 50 μM peptide microinjected, insulin 8.25 μg/ml
  plateau of % GVBD following insulin exposure: 85-90 % GVBD
PKC [2]
  induction of PKC autophosphorylation in the absence of PKC activators: Neither peptide I nor control peptide induced PKC autophosphorylation
βPKC [3]
  nicking of βPKC by Arg-C (78 kDa fragment) at low concentrations of activators: nicking of βPKC did not occur

## maltose binding protein
βPKC [4]
  binding of PKC to control proteins: did not bind PKC

## peptide rI: synthetic peptide based on the corresponding region in WD-40 repeat I of RACK1 (VTQIATT)
PKC binding to RACK1
  inhibition of the binding of PKC to RACK1, peptides rI-rVII: effective inhibitors

## peptide rII: synthetic peptide based on the corresponding region in WD-40 repeat II of RACK1 (FVSDVVI)
PKC binding to RACK1
  inhibition of the binding of PKC to RACK1, peptides rI-rVII: effective inhibitors

## peptide rIII: seven amino acid peptide identical to a segment of RACK1 WD-40 repeat III (DVLSVAF)
[1]; peptide microinjected (rVI 50 μM; rIII 50 and 500 μM)
  effect on insulin-induced oocyte maturation: enhances insulin-induced oocyte maturation; also recorded: potentiated the effects of insulin on oocyte maturation
[1]; peptide microinjected, insulin
  fraction of oocytes exposed to insulin that reach maturation: ~100%
δ and εPKC isozymes; norepinephrine 2 μM, peptide introduced into cardiac myocytes
  effect on NE-induced translocation of PKC isozymes: further enhanced
δ and εPKC isozymes; [7]
  degradation of δ and εPKC isozymes: followed by degradation of these activated isozymes
  translocation / distribution of δ and εPKC isozymes in the absence of hormone stimulation: caused an immediate translocation of δ and εPKC isozymes
PKC binding to RACK1; 10 μM peptide
  relative effectiveness in inhibiting PKC binding to RACK1: somewhat more effective than peptide rVI
PKC binding to RACK1; 10 μM peptide preincubated with PKC
  inhibition of PKC binding to RACK1 (FIG. 3): inhibit the binding of PKC to RACK1
PKC binding to RACK1
  inhibition of the binding of PKC to RACK1, peptides rI-rVII: inhibited the binding of PKC to RACK1
βPKC [3]
  nicking of βPKC by Arg-C (78 kDa fragment) at low concentrations of activators: resulted in the appearance of the 78 kDa nicked PKC fragment
PKC [5]
  induction of PKC-mediated histone phosphorylation in the absence of PS, DG and calcium: similarly induced histone phosphorylation

## peptide rV: synthetic peptide based on the corresponding region in WD-40 repeat V of RACK1 (GYLNTVT)
PKC binding to RACK1
  inhibition of the binding of PKC to RACK1, peptides rI-rVII: lesser inhibitory effect

## peptide rVII: synthetic peptide based on the corresponding region in WD-40 repeat VII of RACK1 (PQCTSLA)
PKC binding to RACK1
  inhibition of the binding of PKC to RACK1, peptides rI-rVII: no inhibition

## rIV: synthetic peptide based on the corresponding region in WD-40 repeat IV of RACK1 (VSCVRFS)
PKC binding to RACK1
  inhibition of the binding of PKC to RACK1, peptides rI-rVII: lesser inhibitory effect

From patent US6262023A, “WD-40 derived peptides and uses thereof” (The Board of Trustees of the Leland Stanford Junior …, priority 1995, dated 2001)
